Results: ChEMBL document CHEMBL1127423, “An evaluation of the antirhinoviral activity of acetylfuran replacements for 3-methylisoxazoles. Are 2-acetylfurans bioisosteres for 3-methylisoxazoles?” (J Med Chem, 1994)
≈ marks a conversion by molar mass, not a printed value. Calls of active or inactive are those of the source. The calls are words filed in the database; no cut-off is given here.

What was measured:
Human rhinovirus sp. [1] = assay: Tested for in vitro antiviral activity against Human rhinovirus (HRV)-14; inactive against HRV-1A, -6, -14,-67; assay type: functional, organism-based
Human rhinovirus sp. [2] = assay: Compound was tested in vitro for minimal inhibitory constant against HRV-14; inactive against HRV-1A, -6, -14,-67; assay type: functional, organism-based
Human rhinovirus sp. [3] = assay: Antirhinoviral activity calculated for mean of fifteen serotypes (HRV-1A, -1B, -2, -6, -14, -15, -21, -22, -25, -30, -41, --50, -67, -86, -89); inactive against HRV-1A, -6, -14,-67; assay type: functional, organism-based
Human rhinovirus sp. [4] = assay: Compound was tested in vitro for minimal inhibitory constant against HRV-14; IA= Inactive; assay type: functional, organism-based
Human rhinovirus sp. [5] = assay: tested for in vitro antiviral activity against Human rhinovirus (HRV)-14; assay type: functional
[6] = Partition coefficient (logP) (HPLC); assay type: physicochemical; settings: octanol/water
Human rhinovirus sp. [7] = assay: tested for minimal inhibitory concentration against Human rhinovirus serotype 86 by plaque reduction assay; assay type: functional
Human rhinovirus sp. [8] = assay: Compound was tested in vitro for minimal inhibitory constant against 80% of fifteen human rhinovirus serotypes
Human rhinovirus sp. [9] = assay: tested for minimal inhibitory concentration against Human rhinovirus serotype 1A by plaque reduction assay; assay type: functional
Human rhinovirus sp. [10] = assay: tested for minimal inhibitory concentration against Human rhinovirus serotype 67 by plaque reduction assay; assay type: functional
Human rhinovirus sp. [11] = assay: Antirhinoviral activity calculated for mean of fifteen serotypes (HRV-1A, -1B, -2, -6, -14, -15, -21, -22, -25, -30, -41, --50, -67, -86, -89); assay type: functional
Human rhinovirus sp. [12] = assay: Tested for in vitro antiviral activity against Human rhinovirus (HRV)-14; assay type: functional
Human rhinovirus sp. [13] = assay: tested for minimal inhibitory concentration against Human rhinovirus serotype 22 by plaque reduction assay; assay type: functional
Human rhinovirus sp. [14] = assay: tested for minimal inhibitory concentration against Human rhinovirus serotype 15 by plaque reduction assay; assay type: functional
Human rhinovirus sp. [15] = assay: tested for minimal inhibitory concentration against Human rhinovirus serotype 25 by plaque reduction assay; assay type: functional
Human rhinovirus sp. [16] = assay: tested for minimal inhibitory concentration against Human rhinovirus serotype 14 by plaque reduction assay; assay type: functional
Human rhinovirus sp. [17] = assay: tested for minimal inhibitory concentration against Human rhinovirus serotype 1B by plaque reduction assay; assay type: functional
Human rhinovirus sp. [18] = assay: tested for minimal inhibitory concentration against Human rhinovirus serotype 2 by plaque reduction assay; assay type: functional
Human rhinovirus sp. [19] = assay: tested for minimal inhibitory concentration against Human rhinovirus serotype 89 by plaque reduction assay; assay type: functional
Human rhinovirus sp. [20] = assay: tested for minimal inhibitory concentration against Human rhinovirus serotype 50 by plaque reduction assay; assay type: functional
Human rhinovirus sp. [21] = assay: tested for minimal inhibitory concentration against Human rhinovirus serotype 41 by plaque reduction assay; assay type: functional
Human rhinovirus sp. [22] = assay: tested for minimal inhibitory concentration against Human rhinovirus serotype 6 by plaque reduction assay; assay type: functional
Human rhinovirus sp. [23] = assay: tested for minimal inhibitory concentration against Human rhinovirus serotype 30 by plaque reduction assay; assay type: functional
Human rhinovirus sp. [24] = assay: tested for minimal inhibitory concentration against Human rhinovirus serotype 21 by plaque reduction assay; assay type: functional
Human rhinovirus sp. [25] = assay: Tested for minimal inhibitory concentration against Human rhinovirus serotype 89 by plaque reduction assay; assay type: functional
Human rhinovirus sp. [26] = assay: Tested for minimal inhibitory concentration against Human rhinovirus serotype 86 by plaque reduction assay; assay type: functional
Human rhinovirus sp. [27] = assay: Tested for minimal inhibitory concentration against Human rhinovirus serotype 41 by plaque reduction assay; inactive; assay type: functional, organism-based
Human rhinovirus sp. [28] = assay: Tested for minimal inhibitory concentration against Human rhinovirus serotype 30 by plaque reduction assay; assay type: functional
Human rhinovirus sp. [29] = assay: Tested for minimal inhibitory concentration against Human rhinovirus serotype 22 by plaque reduction assay; assay type: functional
Human rhinovirus sp. [30] = assay: Tested for minimal inhibitory concentration against Human rhinovirus serotype 21 by plaque reduction assay; assay type: functional
Human rhinovirus sp. [31] = assay: Tested for minimal inhibitory concentration against Human rhinovirus serotype 14 by plaque reduction assay; assay type: functional
Human rhinovirus sp. [32] = assay: Tested for minimal inhibitory concentration against Human rhinovirus serotype 1B by plaque reduction assay; inactive; assay type: functional, organism-based
Human rhinovirus sp. [33] = assay: Tested for minimal inhibitory concentration against Human rhinovirus serotype 1A by plaque reduction assay; assay type: functional
Human rhinovirus sp. [34] = assay: Tested for minimal inhibitory concentration against Human rhinovirus serotype 25 by plaque reduction assay; inactive; assay type: functional, organism-based
Human rhinovirus sp. [35] = assay: Tested for minimal inhibitory concentration against Human rhinovirus serotype 6 by plaque reduction assay; assay type: functional
Human rhinovirus sp. [36] = assay: Tested for minimal inhibitory concentration against Human rhinovirus serotype 15 by plaque reduction assay; assay type: functional
Human rhinovirus sp. [37] = assay: Tested for minimal inhibitory concentration against Human rhinovirus serotype 67 by plaque reduction assay; assay type: functional
Human rhinovirus sp. [38] = assay: Tested for minimal inhibitory concentration against Human rhinovirus serotype 2 by plaque reduction assay; assay type: functional
Human rhinovirus sp. [39] = assay: Tested for minimal inhibitory concentration against Human rhinovirus serotype 50 by plaque reduction assay; assay type: functional
Human rhinovirus sp. [40] = assay: Compound was tested in vitro for minimal inhibitory constant against HRV-14; high capacity tissue culture infectious dose; assay type: functional, organism-based
Human rhinovirus sp. [41] = assay: Antirhinoviral activity calculated for mean of fifteen serotypes (HRV-1A, -1B, -2, -6, -14, -15, -21, -22, -25, -30, -41, --50, -67, -86, -89); inactive against HRV-6,-41,-67,-86; assay type: functional, organism-based

| logP [6] | MIC80 (Human rhinovirus sp. [8]) [µM] | Compound | Activity (Human rhinovirus sp. [11]) [µM] | Activity (Human rhinovirus sp. [12]) [µM] | also measured |
| --- | --- | --- | --- | --- | --- |
|  |  | Cc1ccc(CCCOc2c(C)cc(-c3noc(C)n3)cc2C)o1 |  |  | Activity (Human rhinovirus sp. [1]): inactive; Activity (Human rhinovirus sp. [2]): inactive; Activity (Human rhinovirus sp. [3]): inactive |
| 3.5 |  | Cc1cc(-c2nnn(C)n2)cc(C)c1OCCCCCc1ccc(C=O)o1 |  |  | MIC80 (Human rhinovirus sp. [4]): inactive; Activity (Human rhinovirus sp. [5]): 27 µM; Activity (Human rhinovirus sp. [3]): inactive |
|  | 1 (≈ 0.341 µg/mL) | CC(=O)c1ccc(CCCCCOc2ccc(C3=NCCO3)cc2)o1 | 0.9 | 1.1 | MIC (Human rhinovirus sp. [7]): 0.4 µM (≈ 0.137 µg/mL); MIC (Human rhinovirus sp. [9]): 0.2 µM (≈ 0.0683 µg/mL); MIC (Human rhinovirus sp. [10]): 1 µM (≈ 0.341 µg/mL); MIC (Human rhinovirus sp. [13]): 1.6 µM (≈ 0.546 µg/mL); MIC (Human rhinovirus sp. [14]): 0.7 µM (≈ 0.239 µg/mL); MIC (Human rhinovirus sp. [15]): 4.5 µM (≈ 1.54 µg/mL); MIC (Human rhinovirus sp. [16]): 1 µM (≈ 0.341 µg/mL); MIC (Human rhinovirus sp. [17]): 0.3 µM (≈ 0.102 µg/mL); MIC (Human rhinovirus sp. [18]): 0.5 µM (≈ 0.171 µg/mL); MIC (Human rhinovirus sp. [19]): 0.05 µM (≈ 0.0171 µg/mL); MIC (Human rhinovirus sp. [20]): 0.2 µM (≈ 0.0683 µg/mL); MIC (Human rhinovirus sp. [21]): 2.2 µM (≈ 0.751 µg/mL); MIC (Human rhinovirus sp. [22]): 0.3 µM (≈ 0.102 µg/mL); MIC (Human rhinovirus sp. [23]): 0.1 µM (≈ 0.0341 µg/mL); MIC (Human rhinovirus sp. [24]): 0.4 µM (≈ 0.137 µg/mL) |
| 3.2 | 0.5 (≈ 0.177 µg/mL) | CC(=O)c1ccc(CCCOc2c(C)cc(-c3nnn(C)n3)cc2C)o1 | 0.3 | 0.5 |  |
|  | 0.4 (≈ 0.142 µg/mL) | CC(=O)c1ccc(CCCOc2c(C)cc(-c3noc(C)n3)cc2C)o1 | 0.2 | 0.5 |  |
| 3.6 | 0.6 (≈ 0.213 µg/mL) | Cc1cc(CCCCCOc2c(C)cc(-c3nnn(C)n3)cc2C)on1 | 0.5 | 0.8 |  |
| 4.6 | 0.9 (≈ 0.345 µg/mL) | Cc1cc(CCCCCOc2c(Cl)cc(C3=NCCO3)cc2Cl)on1 [WIN-54954] | 0.7 | 2.3 |  |
| 3.2 | 0.4 (≈ 0.131 µg/mL) | Cc1cc(CCCOc2c(C)cc(-c3nnn(C)n3)cc2C)on1 | 0.5 | 1.7 |  |
| 3.7 | 0.8 (≈ 0.306 µg/mL) | CC(=O)c1ccc(CCCCCOc2c(C)cc(-c3nnn(C)n3)cc2C)o1 | 0.6 | 1.2 |  |
|  | 7 (≈ 2.2 µg/mL) | Cc1cc(CCCCCOc2ccc(C3=NCCO3)cc2)on1 |  | 0.7 | MIC (Human rhinovirus sp. [25]): 0.4 µM (≈ 0.126 µg/mL); MIC (Human rhinovirus sp. [26]): 0.1 µM (≈ 0.0314 µg/mL); MIC (Human rhinovirus sp. [27]): inactive; MIC (Human rhinovirus sp. [28]): 0.3 µM (≈ 0.0943 µg/mL); MIC (Human rhinovirus sp. [29]): 0.9 µM (≈ 0.283 µg/mL); MIC (Human rhinovirus sp. [30]): 1.2 µM (≈ 0.377 µg/mL); MIC (Human rhinovirus sp. [31]): 0.7 µM (≈ 0.22 µg/mL); MIC (Human rhinovirus sp. [32]): inactive; MIC (Human rhinovirus sp. [33]): 7 µM (≈ 2.2 µg/mL); MIC (Human rhinovirus sp. [34]): inactive; MIC (Human rhinovirus sp. [35]): 0.06 µM (≈ 0.0189 µg/mL); MIC (Human rhinovirus sp. [36]): 1.5 µM (≈ 0.472 µg/mL); MIC (Human rhinovirus sp. [37]): 2.4 µM (≈ 0.755 µg/mL); MIC (Human rhinovirus sp. [38]): 1.1 µM (≈ 0.346 µg/mL); MIC (Human rhinovirus sp. [39]): 1.5 µM (≈ 0.472 µg/mL); Activity (Human rhinovirus sp. [3]): inactive |
|  | 1.4 (≈ 0.661 µg/mL) | Cc1cc(CCCCCOc2c(Br)cc(C3=NCCO3)cc2Br)on1 | 0.6 | 2 |  |
| 4.6 | 0.7 (≈ 0.287 µg/mL) | CC(=O)c1ccc(CCCCCOc2c(Cl)cc(C3=NCCO3)cc2Cl)o1 | 0.5 | 2 |  |
|  | 0.2 (≈ 0.0655 µg/mL) | Cc1cc(CCCOc2c(C)cc(-c3noc(C)n3)cc2C)on1 | 0.1 | 0.2 |  |
|  | 0.9 (≈ 0.449 µg/mL) | CC(=O)c1ccc(CCCCCOc2c(Br)cc(C3=NCCO3)cc2Br)o1 | 0.7 | 3.3 |  |
|  |  | Cc1ccc(CCCOc2c(C)cc(-c3nnn(C)n3)cc2C)o1 |  | 30 | MIC80 (Human rhinovirus sp. [40]): high capacity tissue culture infectious dose; Activity (Human rhinovirus sp. [41]): inactive |
